Where “and” joins values, the source holds several entries; their conditions need not be identical. Equal entries are not always repeated.
Assays:
[1] = system: Intracellular adenosine in rat heart, liver, lung and brain; test: In vivo effect on adenosine levels in rat tissues
Description: Hearts were removed from animals and flash frozen in liquid nitrogen with 10 s of death. Liver and lungs were removed en bloc and flash frozen with 30 s of death. Brain tissue was subsequently dissected.

[2] = system: HT-29 SF cells; test: Reversal of DHEA effect on cell cycle; type: cell-based, human; details: supplement with 25 μM DHEA
[3] = system: HT-29 SF cells; test: DHEA effect on cell growth (Coulter counter); details: 12.5-200 μM, 24-72 hours
Method: Cell cultures, HT-29 SF cells, which represent a subline of HY-29 cells (ATCC, Rockville, Md.) and are adapted for growth in completely defined serum-free PC-1 medium (Ventrex, Portland, Me.), were obtained. Stock cultures were maintained in this medium at 37° C. (in a humidified atmosphere containing 5% CO2).

[4] = system: HT-29 SF cells; test: DHEA effect on cell cycle distribution (flow cytometry); type: cell-based, human; details: 25, 50 or 200 μM, 24-72 hours, time- and dose-dependent
Method: Cultures were trypsinized following 0, 24, 48, or 74 hours and fixed and stained using a modification of a procedure of Bauer et al., Cancer Res. 46, 3173-3178 (1986). Briefly, cells were collected by centrifugation and resuspended in cold phosphate-buffered saline. Cells were fixed in 70% ethanol, washed, and resuspended in phosphate-buffered saline.
After 24, 48, and 72 hours, cells were harvested, fixed in ethanol, and stained with propidium iodide, and the DNA content/cell was determined by flow cytometric analysis. The percentage of cells in G1, S, and G2M phases was calculated using the Cellfit cell cycle analysis program. S phase is marked by a quadrangle for clarity. Representative histograms from duplicate determinations are shown. The experiment was repeated three times.

[5] = system: rat peritoneal mast cells; test: Histamine secretion after stimulation with compound 48/80; type: cell-based
Method: Freshly isolated rat peritoneal mast cells (2×10^5 cells) were pre-incubated for 5 min at 37° C. in a Balanced Salt Solution containing 150 mM NaCl ([…]), 2.7 mM KCl, 0.9 mM CaCl2, 4 mM Na2HPO4, 2.7 mM KH2PO4, 1.75 mg/ml BSA and 0.1 μg/ml compound 48/80. Thereafter, DHEAS or water (control) are added and the mixture is incubated for 2 min at 37° C.
Following incubation, the mixture is cooled to 4° C. then centrifuged at 4500 rpm for 5 min The supernatant is collected and mixed for 30 min at 4° C. with 5% TCA (trichloroacetic acid) to cause protein precipitation. After centrifugation at 9500×g for 15 min, the supernatant is collected and mixed with 0.25 M HCl. Thereafter, the samples are mixed with 2M NaOH and 0.2% OPT (ortho-phtalaldehyde) and incubated for 30 min at 4° C. in darkness, after which time the reaction is stopped by addition of 0.5 M H2SO4.

[6] = Solubility of DHEA-S as a function of NaCl and temperature; type: physicochemical; details: for Equilibrium constant Ksp=[DHEA-S−][Na+]: slope of solubility vs reciprocal sodium concentration
Description: Inhalation of pure water can produce a cough stimulus. […] The temperature effect is weaker at high NaCl concentrations.

[7] = HPLC check of drug degradation during jet milling; type: physicochemical; details: HPLC peak area vs unmilled standard, single- and double-pass
Method: The chromatographic peak area for the HPLC assay of the unmilled drug standard solution (10 mg/ml) gave a value of 23,427. […] The chromatographic peak areas for vials A and B were 11,979 and 11,677, respectively.

Nc1nc(=O)c2c([nH]1)NCC(CNc1ccc(C(=O)N[C@@H](CCC(=O)O)C(=O)O)cc1)N2C=O (mixture of isomers) [Folinic Acid, Folinic acid]
Effect on steroid-mediated adenosine depletion ([1]; coadministration with DHEA or methyltestosterone): completely abrogated steroid-mediated adenosine depletion
Effect on adenosine levels ([1]; rat, in vivo): increase in adenosine levels for all organs studied

CC(C)CCC[C@@H](C)[C@H]1CC[C@H]2[C@@H]3CC=C4C[C@@H](O)CC[C@]4(C)[C@H]3CC[C@]12C [CH, cholesterol]
Prevention of DHEA-induced reduction of cells in S phase ([2]; 48 hours): very little effect
Prevention of DHEA-induced reduction of cells in S phase ([2]; 72 hours): no effect

C[C@]12CC[C@H](O)CC1=CC[C@@H]1[C@@H]2CC[C@]2(C)C(=O)CC[C@@H]12 [DHEA, 3β-hydroxyandrost-5-en-17-one]
Effect on cell growth [3]: time- and dose-dependent inhibition of growth
Effect on cell cycle [4]: G1 block

C[C@]12CC[C@H](OS(=O)(=O)[O-])CC1=CC[C@@H]1[C@@H]2CC[C@]2(C)C(=O)CC[C@@H]12.[Na+] [DHEA-S, sodium dehydroepiandrostenone sulfate]
Solubility under the assay conditions ([5]; at 10^-4 M): highly limited
EC50 ([5]; compound 48/80 0.1 μg/ml, 2 min at 37° C., read-out: EC50, inhibition of histamine release): 170 nM
Estimated DHEA-S concentration in solution ([6]; 15° C., 20 mM Na+, Ksp 1316 mM^2, quadratic formula): 27.5 mM and 10.7 mg/mL
Ksp at 15° C. ([6]; interpolated versus reciprocal of absolute temperature): ~1316 mM^2
Equilibrium constant Ksp=[DHEA-S−][Na+] ([6]; refrigerated (7-8° C.)): 665 mM2
Equilibrium constant Ksp=[DHEA-S−][Na+] ([6]; room temperature (24-25° C.)): 2236 mM2
Degradation of the drug during jet milling micronization [7]: no detectable degradation

C[C@@](O)(CCO)CC(=O)O [MVA, mevalonic acid]
Prevention of DHEA-induced reduction of cells in S phase ([2]; 48 hours): partially prevented
Prevention of DHEA-induced reduction of cells in S phase ([2]; 72 hours): not after 72 hours
